Type in all cases: biochemical
Test [1] deals with CDK4/cyclin D1 (Homo sapiens (Human), UniProt P11802). Briefly: CDK4/Cyclin D1 enzymatic activity assay (Lance TR-FRET). The procedure: A 384-well microtiter Lance TR-FRET (time-resolved-fluorescence energy transfer) endpoint assay was used for CDK4/cyclin D1 kinase activity measurements. The same assay was used for IC50 determination of small molecule inhibitors. In general, the kinase reactions were carried out in 30 μL volumes in the reaction solution containing the following: 2 uL compound (in […]), 18 uL CDK4/cyclin D1 in Assay Buffer (50 mM HEPES, pH 7.5, 5 mM MgCl2, 2 mM MnCl2, 1 mM DTT, 0.05% BSA, 0.02% Tween-20), 10 uL of the mixture of pRb152 and ATP. The final reaction mixture contains compound (inhibitor) with the concentration varying from 0.005-10 μM, 2% DMSO, 0.3 nM CDK4/cyclin D1, 175 nM pRb152, and 3 μM ATP (Amersham Pharmacia, Cat. No. 27-2056-01). All reactions were run at room temperature in 384-well white flat-bottom OptiPlates (Perkin Elmer, Cat. No. 6007290) for 60 min then were quenched by the addition of 10 μL of 120 mM EDTA. The signals were captured by the addition of 40 μL of the Detection Solution containing the following: Detection Buffer (50 mM HEPES, pH 7.5, 30 mM EDTA, 0.1% Triton x-100, 0.05% BSA), 70 ng/mL anti-phospho-pRb(S780) (Cell Signaling Technology, Cat. No. 9307S), 1 nM Lance Eu-W1024-Rabbit anti-IgG (Perkin Elmer, Cat. No. AD0082), and 20 nM SureLight™ Allophycocyanin-Streptavidin (Perkin Elmer, Cat. No. CR130-100). The resulted solutions were incubated at room temperature for 2 hours before read on the Evision Multilabel Reader (Perkin Elmer, Envision 2102-0010).
CDk4/cyclin D1 recombinant protein used in the enzymatic activity assay was prepared by coexpressing pDEST10-CDK4 (N-terminal His6) and pFastBacDual-GST-hCyclinDl viruses in Sf21 cells.
(In TR-FRET formats the signal depends on donor and acceptor labels being close together.)

Test [2] deals with CDK2/cyclin A (Homo sapiens (Human), UniProt P24941). Briefly: CDK2/Cyclin A enzymatic activity assay (IMAP-FP).
The target of test [3] is CDK1/cyclin B (Homo sapiens (Human), UniProt P06493). Briefly: CDK1/Cyclin B enzymatic activity assay (IMAP-FP). From the text:
A 384-well microtiter IMAP-FPT™ (Molecular Devices Trade Mark Technology) endpoint assay was used for CDK1/cyclin B kinase activity measurements. The same assay was used for IC50 determination of small molecule inhibitors.

The mark [4] stands for this setting: Table 2, 3 μM ATP, read-out: CDK4.
Setting [5] is: Table 2, 20 μM ATP, read-out: CDK1.

Like-named read-outs stand apart in the source and are kept apart here.

Sequence of CDK4/cyclin D1 (P11802 whole entry): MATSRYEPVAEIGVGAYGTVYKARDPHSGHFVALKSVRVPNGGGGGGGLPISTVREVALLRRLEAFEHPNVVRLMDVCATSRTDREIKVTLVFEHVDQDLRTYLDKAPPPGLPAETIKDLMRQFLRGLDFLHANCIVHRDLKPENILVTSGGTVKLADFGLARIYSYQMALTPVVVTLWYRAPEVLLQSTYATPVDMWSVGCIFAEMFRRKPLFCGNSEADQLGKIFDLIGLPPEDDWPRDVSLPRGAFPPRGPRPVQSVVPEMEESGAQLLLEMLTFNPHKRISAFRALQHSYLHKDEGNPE
Sequence of CDK4/cyclin D1 (P24385 whole entry partner): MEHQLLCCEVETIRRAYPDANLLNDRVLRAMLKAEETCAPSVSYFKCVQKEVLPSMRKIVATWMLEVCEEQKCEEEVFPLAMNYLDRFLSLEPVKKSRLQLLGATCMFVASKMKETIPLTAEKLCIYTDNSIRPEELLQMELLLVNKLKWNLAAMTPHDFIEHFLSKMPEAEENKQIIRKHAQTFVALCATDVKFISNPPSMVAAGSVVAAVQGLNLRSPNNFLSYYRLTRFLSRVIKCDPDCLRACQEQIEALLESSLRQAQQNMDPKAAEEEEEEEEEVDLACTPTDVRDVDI
Sequence of CDK1/cyclin B (P06493 whole entry, species assumed): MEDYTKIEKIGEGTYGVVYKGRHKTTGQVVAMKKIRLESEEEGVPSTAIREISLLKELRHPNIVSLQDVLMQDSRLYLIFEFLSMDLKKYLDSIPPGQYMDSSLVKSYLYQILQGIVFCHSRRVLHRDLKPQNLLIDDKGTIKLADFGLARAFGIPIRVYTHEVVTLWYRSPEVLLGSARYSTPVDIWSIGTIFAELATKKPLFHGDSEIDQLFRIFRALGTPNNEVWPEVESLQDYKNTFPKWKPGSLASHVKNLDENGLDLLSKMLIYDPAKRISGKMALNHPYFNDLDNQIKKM
Sequence of CDK1/cyclin B (P14635 whole entry partner, species assumed): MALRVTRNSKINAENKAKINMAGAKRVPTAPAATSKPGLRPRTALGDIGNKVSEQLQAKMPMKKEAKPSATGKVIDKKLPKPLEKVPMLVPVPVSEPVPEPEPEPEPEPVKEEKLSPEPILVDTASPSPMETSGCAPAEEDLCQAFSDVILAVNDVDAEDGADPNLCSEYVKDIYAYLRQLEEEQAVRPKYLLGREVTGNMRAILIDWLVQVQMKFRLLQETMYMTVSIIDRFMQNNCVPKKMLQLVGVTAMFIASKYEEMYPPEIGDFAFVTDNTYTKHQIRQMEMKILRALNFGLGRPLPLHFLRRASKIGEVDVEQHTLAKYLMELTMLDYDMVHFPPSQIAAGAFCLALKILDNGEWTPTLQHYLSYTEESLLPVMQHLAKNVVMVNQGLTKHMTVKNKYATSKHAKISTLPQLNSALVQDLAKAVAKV

As to `CN(C)C(=O)c1cc2cnc(Nc3ccc(N4CCN(CC(N)=O)CC4)cn3)nc2n1C1CCCC1` [Example 10, 2-[5-(4-Carbamoylmethyl-piperazin-1-yl)-pyridin-2-ylamino]-7-cyclopentyl-7H-pyrrolo[2,3-d]pyrimidine-6-carboxylic acid dimethylamide], the IC50 was 0.01 to 0.1 µM in test [1] (setting [4]); more than 15 µM in test [2] (Table 2, read-out: CDK2); more than 15 µM in test [3] (setting [5]).

As for `CN(C)C(=O)c1cc2cnc(Nc3ccc(CN4CC(O)C4)cn3)nc2n1C1CCCC1` [Example 10A, 7-Cyclopentyl-2-[5-(3-hydroxy-azetidin-1-ylmethyl)-pyridin-2-ylamino]-7H-pyrrolo[2,3-d]pyrimidine-6-carboxylic acid dimethylamide], the IC50 in test [1] (setting [4]) is 0.01 to 0.1 µM; in test [2] (Table 2, read-out: CDK2), 14 µM; in test [3] (setting [5]), 12 µM.

On to `c1ncc(-c2cc3cnc(Nc4ccc(N5CCNCC5)cn4)nc3n2C2CCCC2)o1` [Example 11, (7-Cyclopentyl-6-oxazol-5-yl-7H-pyrrolo[2,3-d]pyrimidin-2-yl)-(5-piperazin-1-yl-pyridin-2-yl)-amine], for which the IC50 in test [1] (setting [4]) is 0.001 to 0.01 µM; in test [2] (Table 2, read-out: CDK2), 3.5 µM; in test [3] (setting [5]), 1.3 µM.

For the compound `CN(C)C(=O)c1cc2cnc(Nc3ccc(N4CCN(C(=O)CN)CC4)cn3)nc2n1C1CCCC1` [Example 12, 2-{5-[4-(2-Amino-acetyl)-piperazin-1-yl]-pyridin-2-ylamino}-7-cyclopentyl-7H-pyrrolo[2,3-d]pyrimidine-6-carboxylic acid dimethylamide], the IC50 was 0.01 to 0.1 µM in test [1] (setting [4]); more than 15 µM in test [2] (Table 2, read-out: CDK2); more than 15 µM in test [3] (setting [5]).

For `COCCN1CCN(c2ccc(Nc3ncc4cc(C(=O)N(C)C)n(C5CCCC5)c4n3)nc2)CC1` [Example 14, 7-Cyclopentyl-2-{5-[4-(2-methoxy-ethyl)-piperazin-1-yl]-pyridin-2-ylamino}-7H-pyrrolo[2,3-d]pyrimidine-6-carboxylic acid dimethylamide], the IC50 in test [1] (setting [4]) is 0.01 to 0.1 µM; in test [2] (Table 2, read-out: CDK2), more than 15 µM; in test [3] (setting [5]), more than 15 µM.

Consider `CN(C)C(=O)c1cc2cnc(Nc3cnc(N4CCN(CCO)CC4)cn3)nc2n1C1CCCC1` [Example 15, 7-Cyclopentyl-2-[4-(2-hydroxy-ethyl)-3,4,5,6-tetrahydro-2H-[1,2]′bipyrazinyl-5′-ylamino]-7H-pyrrolo[2,3-d]pyrimidine-6-carboxylic acid dimethylamide], for which the IC50 is 0.1 to 1 µM in test [1] (setting [4]); more than 15 µM in test [2] (Table 2, read-out: CDK2); more than 15 µM in test [3] (setting [5]).

For the compound `C[C@@H]1CN(c2ccc(Nc3ncc4cc(C(=O)N(C)C)n(C5CCCC5)c4n3)nc2)CCN1` [Example 16, 7-Cyclopentyl-2-[5-((R)-3-methyl-piperazin-1-yl)-pyridin-2-ylamino]-7H-pyrrolo[2,3-d]pyrimidine-6-carboxylic acid dimethylamide], the IC50 in test [1] (setting [4]) is 0.001 to 0.01 µM; in test [2] (Table 2, read-out: CDK2), more than 15 µM; in test [3] (setting [5]), more than 15 µM.

Regarding `C[C@H]1CN(c2ccc(Nc3ncc4cc(C(=O)N(C)C)n(C5CCCC5)c4n3)nc2)CCN1` [Example 17, 7-Cyclopentyl-2-[5-((S)-3-methyl-piperazin-1-yl)-pyridin-2-ylamino]-7H-pyrrolo[2,3-d]pyrimidine-6-carboxylic acid dimethylamide], the IC50 in test [1] (setting [4]) is 0.01 to 0.1 µM; in test [2] (Table 2, read-out: CDK2) it was more than 15 µM; in test [3] (setting [5]) it was more than 15 µM.

For `c1ncc(-c2cc3cnc(Nc4ccc(CN5CCNCC5)cn4)nc3n2C2CCCC2)o1` [Example 18, (7-Cyclopentyl-6-oxazol-5-yl-7H-pyrrolo[2,3-d]pyrimidin-2-yl)-(5-piperazin-1-ylmethyl-pyridin-2-yl)-amine], the IC50 is 0.001 to 0.01 µM in test [1] (setting [4]); 2.8 µM in test [2] (Table 2, read-out: CDK2); 1.1 µM in test [3] (setting [5]).

With `CC1CN(c2ccc(Nc3ncc4cc(C(=O)N(C)C)n(C5CCCC5)c4n3)nc2)CCN1` (stereo not drawn) [Example 19, 7-Cyclopentyl-2-[5-(3-methyl-piperazin-1-yl)-pyridin-2-ylamino]-7H-pyrrolo[2,3-d]pyrimidine-6-carboxylic acid dimethylamide], the IC50 in test [1] (setting [4]) was 0.001 to 0.01 µM; in test [2] (Table 2, read-out: CDK2) it was more than 15 µM; in test [3] (setting [5]), more than 15 µM.

Turning to `CN(C)C(=O)c1cc2cnc(Nc3ccc(N4CCC(O)CC4)cn3)nc2n1C1CCCC1` [Example 20, 7-Cyclopentyl-2-(4-hydroxy-3,4,5,6-tetrahydro-2H-[1,3′]bipyridinyl-6′-ylamino)-7H-pyrrolo[2,3-d]pyrimidine-6-carboxylic acid dimethylamide], the IC50 in test [1] (setting [4]) is 0.01 to 0.1 µM; in test [2] (Table 2, read-out: CDK2) it was more than 15 µM; in test [3] (setting [5]), more than 15 µM.

For the compound `CN(C)C(=O)c1cc2cnc(Nc3ccc(N4CCN(CCCO)CC4)cn3)nc2n1C1CCCC1` [Example 21, 7-Cyclopentyl-2-{5-[4-(3-hydroxy-propyl)-piperazin-1-yl]-pyridin-2-ylamino}-7H-pyrrolo[2,3-d]pyrimidine-6-carboxylic acid dimethylamide], the IC50 in test [1] (setting [4]) was 0.001 to 0.01 µM; in test [2] (Table 2, read-out: CDK2), more than 15 µM; in test [3] (setting [5]) it was more than 15 µM.

On to `CN(C)C(=O)c1cc2cnc(Nc3ccc(N4CCN(C(=O)N5CCCC5)CC4)cn3)nc2n1C1CCCC1` [Example 22, 7-Cyclopentyl-2-{5-[4-(pyrrolidine-1-carbonyl)-piperazin-1-yl]-pyridin-2-ylamino}-7H-pyrrolo[2,3-d]pyrimidine-6-carboxylic acid dimethylamide], for which the IC50 in test [1] (setting [4]) was 0.01 to 0.1 µM; in test [2] (Table 2, read-out: CDK2), more than 15 µM; in test [3] (setting [5]), more than 15 µM.

Consider `CN(C)C(=O)c1cc2cnc(Nc3ccc(N4CCN(C(=O)C5CCCCC5)CC4)cn3)nc2n1C1CCCC1` [Example 23, 2-[5-(4-Cyclohexanecarbonyl-piperazin-1-yl)-pyridin-2-ylamino]-7-cyclopentyl-7H-pyrrolo[2,3-d]pyrimidine-6-carboxylic acid dimethylamide], for which the IC50 is 0.01 to 0.1 µM in test [1] (setting [4]); more than 15 µM in test [2] (Table 2, read-out: CDK2); more than 15 µM in test [3] (setting [5]).

For `CC1CN(c2ccc(Nc3ncc4cc(C(=O)N(C)C)n(C5CCCC5)c4n3)nc2)CC(C)N1` (stereo not drawn) [Example 24, 7-Cyclopentyl-2-[5-(3,5-dimethyl-piperazin-1-yl)-pyridin-2-ylamino]-7H-pyrrolo[2,3-d]pyrimidine-6-carboxylic acid dimethylamide], the IC50 is 0.01 to 0.1 µM in test [1] (setting [4]); more than 15 µM in test [2] (Table 2, read-out: CDK2); more than 15 µM in test [3] (setting [5]).

For `CN(C)C(=O)c1cc2cnc(Nc3ccc(N4CCN(CC(F)(F)F)CC4)cn3)nc2n1C1CCCC1` [Example 25, 7-Cyclopentyl-2-{5-[4-(2,2,2-trifluoro-ethyl)-piperazin-1-yl]-pyridin-2-ylamino}-7H-pyrrolo[2,3-d]pyrimidine-6-carboxylic acid dimethylamide], the IC50 in test [1] (setting [4]) was 0.01 to 0.1 µM; in test [2] (Table 2, read-out: CDK2), more than 15 µM; in test [3] (setting [5]), more than 15 µM.

Consider `CN(C)C(=O)c1cc2cnc(Nc3ccc(N4CCN(CCO)CC4)cn3)nc2n1C1CCCC1` [Example 26, 7-Cyclopentyl-2-{5-[4-(2-hydroxy-ethyl)-piperazin-1-yl]-pyridin-2-ylamino}-7H-pyrrolo[2,3-d]pyrimidine-6-carboxylic acid dimethylamide], for which the IC50 is 0.01 to 0.1 µM in test [1] (setting [4]); 0.026 µM in test [1] (Table 4, read-out: IC50 (μM) CDK4); more than 15 µM in test [2] (Table 2, read-out: CDK2); more than 15 µM in test [2] (Table 4, read-out: IC50 (μM) CDK2); more than 15 µM in test [3] (setting [5]); more than 15 µM in test [3] (Table 4, read-out: IC50 (μM) CDK1).

`CN(C)C(=O)c1cc2cnc(Nc3ccc(N4CCN(C(=O)C5CC5)CC4)cn3)nc2n1C1CCCC1` [Example 27, 7-Cyclopentyl-2-[5-(4-cyclopropanecarbonyl-piperazin-1-yl)-pyridin-2-ylamino]-7H-pyrrolo[2,3-d]pyrimidine-6-carboxylic acid dimethylamide]: the IC50 in test [1] (setting [4]) was 0.01 to 0.1 µM; in test [2] (Table 2, read-out: CDK2), more than 15 µM; in test [3] (setting [5]), more than 15 µM.

With `CN(C)C(=O)c1cc2cnc(Nc3ccc(N4CCN(C[C@H](O)CO)CC4)cn3)nc2n1C1CCCC1` [Example 29, 7-Cyclopentyl-2-{5-[4-((S)-2,3-dihydroxy-propyl)-piperazin-1-yl]-pyridin-2-ylamino}-7H-pyrrolo[2,3-d]pyrimidine-6-carboxylic acid dimethylamide], the IC50 in test [1] (setting [4]) is 0.01 to 0.1 µM; in test [2] (Table 2, read-out: CDK2), more than 15 µM; in test [3] (setting [5]), 15 µM.

The record behind these values is US8962630B2, “Pyrrolopyrimidine compounds and their uses” (Novartis AG, priority 2008, dated 2015).
